Source: US11746103B2, “ALK-5 inhibitors and uses thereof” (Sumitomo Pharma Oncology, Inc., priority 2020, dated 2023)

Experiments:
[1] = tested on: TGF-beta induced SMAD signaling; assay: RDSR (RD SMAD reporter) Cellular Reporter Assay; assay type: cell-based; conditions: Homo sapiens; 200 pg/ml rhTGF-beta1, 24 h; read-out: RD-SMAD reporter activity
Outline: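 Human rhabdomyosarcoma RD cells stably carrying an SBE-driven luc2P luciferase reporter. Inhibition of SMAD signaling was quantified from ONE-Glo luminescence.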

[2] = tested on: phospho-SMAD2 (Ser 465/467) in A549 xenograft; assay: A549 xenograft study, tumor phospho SMAD2; assay type: in vivo, mouse; conditions: for phospho SMAD2 levels in tumor (normalized to GAPDH): 10, 50, 75, 100 mg/Kg; for inhibition at 10 mg/kg / inhibition at 50 mg/kg / inhibition at 75 mg/kg / inhibition at 100 mg/kg: Mus musculus, A549, oral gavage, 3 hours after administration, read-out: Percent of p-SMAD2 inhibition compared to vehicle control
Description: To test compounds for in vivo on-target activity (ALK5/TGF-βR1 inhibition), a study was completed using an A549 murine xenograft model. This model was utilized since an ALK5 inhibitor is expected to reduce the amount of the key TGF-β signaling molecule phosphoSMAD2 in the A549 xenograft cells. The TGF-β mediated phosphorylation in A549 cells takes place at amino acid residue four hundred and sixty-five and four hundred and sixty-seven (both are serine residues).
Eight-week old, female athymic nude mice (Charles River) were injected with approximately four million A549 cells (ATCC, CCL-185). The cells employed were harvested and resuspended in plain RPMI media (no phenol red added) and matrigel (Fisher Scientific) at a one to one ratio. Injection comprised a two-hundred microliter sample injected into the right hind flank of each mouse. Resulting tumors were measured every three days by caliper and as tumors reached an average of one hundred and thirty millimeters cubed, mice were randomized in groups of three.
All compounds were resuspended in 1-Methyl-2-pyrrolidinone (10%) plus 20% Solutol in water (90%). Galunisertib was included as a positive control and given at seventy-five milligram per kilogram to three mice. The drug suspensions were sonicated for fifteen minutes to generate a fine particle suspension before being administered to a subject. Mice were dosed (per oral gavage) at dose levels of one hundred mg/Kg, seventy-five mg/Kg, fifty mg/Kg and ten mg/Kg with three mice in each group. A vehicle control group with three mice was used to establish the baseline level of phospho SMAD2 in the tumor xenograft. Three hours after drug administration, tumors were harvested and stored at negative eighty degrees Celsius until further processing. The phospho SMAD2 levels were determined using the BioPlex Pro anti phospho-SMAD2 (Ser 465/467) beads from Biorad and this signal was normalized using GAPDH levels from each sample (Milliplex MAP GAPDH beads, Sigma/Millipore). Tumors were processed according to kit instructions and beads analyzed using the MagPix instrument by Luminex.

`Cc1cccc2c(Nc3ccnc(Nc4ccc(N5CCOCC5)cc4)n3)cnnc12` [EX-10, N4-(8-methylcinnolin-4-yl)-N2-(4-morpholino-phenyl)-pyrimidine-2,4-diamine] was tested, and the IC50 [1] was < 100 nM, the “phospho SMAD2 levels in tumor (normalized to GAPDH)” value [2] was “reduced the phopho SMAD2 levels (p-SMAD2) in a dose dependent fashion” and the inhibition at 10 mg/kg [2] was 33.5%. For the same molecule, the inhibition at 50 mg/kg [2] was 78.3%, the inhibition at 75 mg/kg ([2]; 75 mg/Kg) was 74.8% and the inhibition at 100 mg/kg [2] was 84.8%.
In the case of `Cc1cccc2c(Nc3ccnc(Nc4cccc(N5CCOCC5)c4)n3)cnnc12` [EX-11, N4-(8-methylcinnolin-4-yl)-N2-(3-morpholinophenyl)pyrimidine-2,4-diamine], the IC50 [1] is reported as < 100 nM, the “observed level of p-SMAD2 as percent of vehicle-only group” value ([2]; 75 mg/Kg) is reported as 7.5% and the “phospho SMAD2 levels in tumor (normalized to GAPDH)” value [2] is reported as “reduced the phopho SMAD2 levels (p-SMAD2) in a dose dependent fashion”. It also gave an inhibition at 10 mg/kg [2] of 32.6%, an inhibition at 50 mg/kg [2] of 87.6% and an inhibition at 75 mg/kg ([2]; 75 mg/Kg) of 92.5%. The inhibition at 100 mg/kg [2] was 90.1%.
